From US8759332B2, “Hepatitis C virus inhibitors” (Enanta Pharmaceuticals, Inc., priority 2009, dated 2014)

system: HCV 1b genotype replicon; assay: HCV replicon assay (qRT-PCR or luciferase), genotype 1b; format: cell-based; settings: Hepatitis C virus, read-out: Genotype-1b replicon EC50 Range
From the text: HCV replicon cell lines (kindly provided by R. Bartenschlager) isolated from colonies as described by Lohman et. al. (Lohman et al. (1999) Science 285: 110-113, expressly incorporated by reference in its entirety) and used for all experiments. The HCV replicon has the nucleic acid sequence set forth in EMBL Accession No.: AJ242651, the coding sequence of which is from nucleotides 1801 to 8406.
The coding sequence of the published HCV replicon was synthesized and subsequently assembled in a modified plasmid pBR322 (Promega, Madison, Wis.) using standard molecular biology techniques. One replicon cell line (“SGR 11-7”) stably expresses HCV replicon RNA which consists of (i) the HCV 5′UTR fused to the first 12 amino acids of the capsid protein, (ii) the neomycin phosphotransferase gene (neo), (iii) the IRES from encephalomyocarditis virus (EMCV), and (iv) HCV NS2 to NS5B genes and the HCV 3′UTR. Another replicon cell line (“Huh-luc/neo-ET”) described by Vrolijk et. al. (Vrolijk et. al. (2003) Journal of Virological Methods 110:201-209, expressly incorporated by reference in its entirety) stably expresses HCV replicon RNA which consists of (i) the HCV 5′UTR fused to the first 12 amino acids of the capsid protein, (ii) the firefly luciferase reporter gene, (iii) the ubiquitin gene, (iv) the neomycin phosphotransferase gene (neo), (v) the IRES from encephalomyocarditis virus (EMCV), and (vi) HCV NS3 to NS5B genes that harbor cell culture adaptive mutations (E1202G, T12801, K1846T) and the HCV 3′UTR.
These cell lines were maintained at 37° C., 5% CO2, 100% relative humidity in DMEM (Cat#11965-084, Invitrogen), with 10% fetal calf serum (“FCS”, Invitrogen), 1% non-essential amino acids (Invitrogen), 1% of Glutamax (Invitrogen), 1% of 100× penicillin/streptomycin (Cat#15140-122, Invitrogen) and Geneticin (Cat#10131-027, Invitrogen) at 0.75 mg/ml or 0.5 mg/ml for 11-7 and Huh-luc/neo-ET cells, respectively.
EC50 values of single agent compounds and combinations were determined by HCV RNA detection using quantitative RT-PCR, according to the manufacturer's instructions, with a TAQMAN® One-Step RT-PCR Master Mix Reagents Kit (Cat# AB 4309169, Applied Biosystems) on an ABI Model 7500 thermocycler. The TaqMan primers used for detecting and quantifying HCV RNA were obtained from Integrated DNA Technologies. HCV RNA was normalized to GAPDH RNA levels in drug-treated cells, which was detected and quantified using the Human GAPDH Endogenous Control Mix (Applied Biosystems, AB 4310884E). Total cellular RNA was purified from 96-well plates using the RNAqueous 96 kit (Ambion, Cat#AM1812). Chemical agent cytotoxicity was evaluated using an MTS assay according to the manufacturer's directions (Promega).
Since clinical drug resistance often develops in viral infections following single agent therapies, there is a need to assess the additive, antagonistic, or synergistic properties of combination therapies. We use the HCV replicon system to assess the potential use of the compound of the present invention or in combination therapies with Interferon alpha, cyclosporine analogs and inhibitors targeting other HCV proteins. The acute effects of a single or combinations of drugs are studied in the “Huh-luc/neo-ET” replicon with each chemical agent titrated in an X or Y direction in a 6 point two-fold dilution curve centered around the EC50 of each drug. Briefly, replicon cells are seeded at 7,000 cells per well in 90 ul DMEM (without phenol red, Invitrogen Cat.#31053-036) per well with 10% FCS, 1% non-essential amino acids, 1% of Glutamax and 1% of 100× penicillin/streptomycin and incubated overnight at 37° C., 5% CO2, 100% relative humidity. […]

Row | Compound | EC50
1 | COC(=O)N[C@H](C(=O)N[C@H]1CCC[C@@H]1Nc1ncc(-c2ccc3cc(-c4c[nH]c([C@@H]5CCCN5C(=O)[C@@H](NC(=O)OC)C(C)C)n4)ccc3c2)cn1)C(C)C (racemic) [373a and 373b] | < 1 nM
2 | COC(=O)N[C@H](C(=O)N1CCC[C@H]1CNc1ncc(-c2ccc3cc(-c4c[nH]c([C@@H]5CCCN5C(=O)[C@@H](NC(=O)OC)C(C)C)n4)ccc3c2)cn1)C(C)C [Example 83] | > 10 nM
3 | COC(=O)N[C@H](C(=O)N1CCC[C@H]1CNc1ncc2cc(-c3ccc(-c4c[nH]c([C@@H]5CCCN5C(=O)[C@@H](NC(=O)OC)C(C)C)n4)cc3)ccc2n1)C(C)C [Example 294] | < 1 nM
4 | COC(=O)N[C@H](C(=O)N1CCC[C@H]1CNc1ccc(-c2ccc3cc(-c4c[nH]c([C@@H]5CCCN5C(=O)[C@@H](NC(=O)OC)C(C)C)n4)ccc3c2)cn1)C(C)C [Example 296] | < 1 nM
5 | COC(=O)N[C@H](C(=O)N1CCC[C@H]1CNc1nc2ccc(-c3ccc(-c4c[nH]c([C@@H]5CCCN5C(=O)[C@@H](NC(=O)OC)C(C)C)n4)cc3)cc2s1)C(C)C [Example 305] | < 1 nM
6 | COC(=O)N[C@H](C(=O)N1CCC[C@H]1CNc1ncc(C#Cc2ccc3nc([C@@H]4CCCN4C(=O)[C@@H](NC(=O)OC)C(C)C)[nH]c3c2)cn1)C(C)C [Example 313] | > 10 nM
7 | COC(=O)N[C@H](C(=O)N1CCC[C@H]1CNc1ncc2cc(C#Cc3ccc4[nH]c([C@@H]5CCCN5C(=O)[C@@H](NC(=O)OC)C(C)C)nc4c3)ccc2n1)C(C)C [Example 322] | 1 to 10 nM
8 | COC(=O)N[C@H](C(=O)N1CCC[C@H]1CNc1ncc(-c2ccc(-c3cnc(NC[C@@H]4CCCN4C(=O)[C@@H](NC(=O)OC)C(C)C)nc3)cc2)cn1)C(C)C [Example 370] | > 10 nM
9 | COC(=O)N[C@H](C(=O)N1CCC[C@H]1CNc1nc2ccc(-c3ccc4nc(NC[C@@H]5CCCN5C(=O)[C@@H](NC(=O)OC)C(C)C)sc4c3)cc2s1)C(C)C [Example 377] | > 10 nM
10 | COC(=O)N[C@H](C(=O)N1CCC(Nc2ncc(-c3ccc4cc(-c5c[nH]c([C@@H]6CCCN6C(=O)[C@@H](NC(=O)OC)C(C)C)n5)ccc4c3)cn2)C1)C(C)C (stereo partly shown) [Example 382] | 1 to 10 nM
11 | COC(=O)N[C@H](C(=O)N1CCC(Nc2ncc(-c3ccc(-c4c[nH]c([C@@H]5CCCN5C(=O)[C@@H](NC(=O)OC)C(C)C)n4)cc3)cn2)C1)C(C)C (stereo partly shown) [Example 384] | 1 to 10 nM
12 | COC(=O)N[C@H](C(=O)N1CCC[C@H]1CNc1nc2ccc(-c3ccc4cc(-c5c[nH]c([C@@H]6CCCN6C(=O)[C@@H](NC(=O)OC)C(C)C)n5)ccc4c3)cc2s1)C(C)C [Example 386] | < 1 nM
13 | CCC(CNc1ncc(-c2ccc3cc(-c4c[nH]c([C@@H]5CCCN5C(=O)[C@@H](NC(=O)OC)C(C)C)n4)ccc3c2)cn1)NC(=O)[C@@H](NC(=O)OC)C(C)C (stereo partly shown) [Example 388] | > 10 nM
14 | CCC(CNc1ncc(-c2ccc3cc(-c4c[nH]c([C@@H]5CCCN5C(=O)[C@@H](NC(=O)OC)C(C)C)n4)ccc3c2)cn1)N(C)C(=O)[C@@H](NC(=O)OC)C(C)C (stereo partly shown) [Example 390] | 1 to 10 nM
15 | COC(=O)N[C@H](C(=O)N1CCC[C@@H]1CNc1ncc(-c2ccc3cc(-c4cnc([C@@H]5CCCN5C(=O)[C@@H](NC(=O)OC)C(C)C)[nH]4)ccc3c2)cn1)C(C)C [Example 393] | 1 to 10 nM
16 | COC(=O)N[C@H](C(=O)N1CCC[C@H]1CNc1ncc(C#Cc2ccc(-c3cnc([C@@H]4CCCN4C(=O)[C@@H](NC(=O)OC)C(C)C)[nH]3)cc2)cn1)C(C)C [Example 394] | > 10 nM
